Several values for one entry are separate records, joined by “and”; a condition that tells them apart may be missing. Equal entries are not always repeated.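 Briefly, cells in 96-well plates were exposed to five compound concentrations for 48 h, and endpoints were estimated by linear interpolation. Abbreviation: GI50, concentration required for 50% inhibition of growth. TGI denotes the concentration required for complete inhibition of growth.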
Tests used:
Assay in all cases: NCI-60 cell line screen, 48 h
SK-MEL-28 melanoma = tested on: SK-MEL-28 melanoma
HCC-2998 colon = tested on: HCC-2998 colon
DU-145 prostate = tested on: DU-145 prostate
K-562 leukemia = tested on: K-562 leukemia
SF-268 CNS = tested on: SF-268 CNS
SNB-75 CNS = tested on: SNB-75 CNS
OVCAR-3 ovarian = tested on: OVCAR-3 ovarian
NCI-H23 lung = tested on: NCI-H23 lung
BT-549 breast = tested on: BT-549 breast
SW-620 colon = tested on: SW-620 colon
SR leukemia = tested on: SR leukemia
UO-31 renal = tested on: UO-31 renal
U251 CNS = tested on: U251 CNS
EKVX NSCLC = tested on: EKVX NSCLC

Structure (SMILES)	TGI (SK-MEL-28 melanoma)	TGI (HCC-2998 colon)	TGI (DU-145 prostate)	TGI (K-562 leukemia)	TGI (SF-268 CNS)	TGI (SNB-75 CNS)	TGI (OVCAR-3 ovarian)	TGI (NCI-H23 lung)	TGI (BT-549 breast)	TGI (SW-620 colon)	TGI (SR leukemia)	TGI (UO-31 renal)	TGI (U251 CNS)	TGI (EKVX NSCLC)	GI50 (DU-145 prostate)	GI50 (K-562 leukemia)	GI50 (SNB-75 CNS)	GI50 (BT-549 breast)	GI50 (SW-620 colon)	GI50 (SR leukemia)
CC(C)=CCNc1ncnc2c1ncn2CCC(=O)OC(C)(C)C	> 100 µM	> 100 µM	> 100 µM	> 100 µM	> 100 µM	> 100 µM	> 100 µM	> 100 µM	> 100 µM	> 100 µM	> 100 µM	> 100 µM	> 100 µM	–	–	–	–	–	–	–
CCOC(=O)Cc1ccc(Nc2nc3cc(C(F)(F)F)ccc3nc2C(=O)OCC)cc1	> 100 µM	–	> 100 µM	–	> 100 µM	48.2 µM	> 100 µM	> 100 µM	> 100 µM	> 100 µM	> 100 µM	> 100 µM	> 100 µM	> 100 µM	–	–	–	–	–	–
C=CCNC1=C2C[C@@H](C)C[C@@H](OC)[C@H](OC(=O)CN(C)C)[C@H](C)/C=C(\C)[C@@H](OC(N)=O)[C@H](OC)/C=C\C=C(/C)C(=O)NC(=CC1=O)C2=O	25.7 µM	0.284 µM	2.72 µM	> 42.1 µM	30.5 µM	0.909 µM	13.8 µM	19.8 µM	24 µM	26.9 µM	> 32 µM	24.1 µM	19.7 µM	21.8 µM	–	–	–	–	–	–
CCCCCCCC1c2cc3[nH]c(cc4nc(cc5[nH]c(cc(n2)[C@@]1(C)CC(=O)N(C)C)c(C)c5CCC(=O)O)C(CCC(=O)O)=C4C)cc3C (some centres undefined)	35.8 µM	37.8 µM	57 µM	56.7 µM	42.9 µM	40 µM	37.1 µM	34.1 µM	28.6 µM	> 100 µM	44.6 µM	32.5 µM	32.9 µM	> 100 µM	–	–	–	–	–	–
CCOC(=O)CSc1nc(-c2ccc(OC)cc2)c(C#N)c(=O)[nH]1	> 100 µM	> 100 µM	> 100 µM	> 100 µM	> 100 µM	> 100 µM	> 100 µM	> 100 µM	> 100 µM	> 100 µM	> 100 µM	> 100 µM	> 100 µM	> 100 µM	–	–	–	–	–	–
CC(=O)O[C@H]1CC[C@H]2[C@@H]3CCc4cc(O)c(I)cc4[C@H]3CC[C@]12C	29.6 µM	32.2 µM	28.7 µM	> 100 µM	28.4 µM	26.2 µM	31.4 µM	27.4 µM	29.4 µM	27.7 µM	> 100 µM	27.1 µM	27.8 µM	26.8 µM	–	–	–	–	–	–
CC(=O)O[C@H]1C(=O)[C@@]2(C)C(C(OC(=O)c3ccccc3)[C@]3(O)CC(OC(=O)C(O)C(NC(=O)c4ccccc4)c4ccc(F)cc4)C(C)=C1C3(C)C)[C@]1(OC(C)=O)CO[C@@H]1C[C@@H]2O (some centres undefined)	–	0.0193 µM	0.0104 µM	> 10 µM	> 10 µM	> 10 µM	–	> 10 µM	> 10 µM	> 10 µM	> 3.82 µM	> 10 µM	> 10 µM	> 10 µM	–	–	–	–	–	–
CC1OC(OC2C(OC(=O)[C@]34CCC(C)(C)C[C@H]3C3=CC[C@@H]5[C@@]6(C)CC[C@H](OC7OC(C(=O)O)C(O)C(O)C7O)C(C)(C)[C@@H]6CC[C@@]5(C)[C@]3(C)CC4)OCC(O)C2O)C(O)C(O)C1OC1OCC(O)C(O)C1O (some centres undefined)	34.4 µM and 58.9 µM	33.6 µM and 34 µM	> 100 µM	> 100 µM and 76.9 µM	> 100 µM	> 100 µM and 76.8 µM	> 100 µM	42.5 µM and 38.3 µM	> 100 µM and 37.3 µM	> 100 µM	> 100 µM and 77.1 µM	39.1 µM and 34.8 µM	> 100 µM	79.3 µM and 48.4 µM	> 100 µM and 45.9 µM	58.7 µM and 28 µM	80.6 µM and 24.7 µM	40 µM and 18.4 µM	98 µM and 45.1 µM	46.2 µM and 22.5 µM
Cc1ccc(SCC(OCn2cnc3c(N)ncnc32)[C@H](C)F)cc1 (some centres undefined)	> 100 µM	> 100 µM	> 100 µM	–	> 100 µM	> 100 µM	> 100 µM	> 100 µM	> 100 µM	> 100 µM	> 100 µM	> 100 µM	> 100 µM	–	–	–	–	–	–	–
O=C(NO)c1cccc(OCc2ccc(Br)cc2)c1	> 100 µM	28.4 µM	13.7 µM	> 47.5 µM	38.1 µM	> 54.1 µM	> 48.1 µM	17.7 µM	> 100 µM	> 100 µM	37.3 µM	14.4 µM	> 53.8 µM	> 79.3 µM	–	–	–	–	–	–
Cc1ccc2c(c1)C(=O)/C(=C1/CCc3ccc(C)cc31)C2	> 100 µM	> 100 µM	> 100 µM	> 100 µM	> 100 µM	71.1 µM	> 100 µM	> 100 µM	> 100 µM	> 100 µM	> 100 µM	> 100 µM	> 100 µM	> 100 µM	–	–	–	–	–	–
C=C(Cl)C(C)(Cl)CCC(Cl)C(C)(C)Cl (centres undefined)	> 100 µM	> 100 µM	> 100 µM	> 100 µM	> 100 µM	> 100 µM	> 100 µM	> 100 µM	> 100 µM	> 100 µM	61.3 µM	> 100 µM	> 100 µM	> 100 µM	–	–	–	–	–	–
CCCCCCCC/C=C\CCCCCCCCNc1ccn(C2OC(COP(=O)(O)OC3CC(n4cc(F)c(=O)[nH]c4=O)OC3CO)C(O)C2O)c(=O)n1 (centres undefined)	> 100 µM	> 100 µM	> 100 µM	> 100 µM	> 100 µM	> 100 µM	> 100 µM	> 30.3 µM	> 100 µM	> 100 µM	37.7 µM	> 100 µM	> 100 µM	> 100 µM	–	–	–	–	–	–
C1COC2SC3=C(SC(=C4SC5=C(SCCS5)S4)S3)SC2O1 (centres undefined)	> 100 µM	> 100 µM	> 100 µM	> 100 µM	> 100 µM	> 100 µM	> 100 µM	> 100 µM	> 100 µM	> 100 µM	78.3 µM	> 100 µM	> 100 µM	> 100 µM	–	–	–	–	–	–
CN(C)c1ccc(N=Nc2cccc3ccoc23)cc1	> 100 µM	> 100 µM	> 100 µM	> 100 µM	> 100 µM	> 100 µM	> 100 µM	> 100 µM	> 100 µM	> 100 µM	> 76.1 µM	> 74.3 µM	> 100 µM	> 100 µM	–	–	–	–	–	–
